5 compounds from ChEMBL document CHEMBL1125808, “Studies on the macrocyclic part of the trichothecene satratoxin: partial synthesis and structure-activity relationship” (Bioorg Med Chem Lett, 1991) can be followed below.

Assay [1] relates to Daudi. As to the kind of experiment: Concentration of compound to inhibit half of cell growth in malignant human lymphocytes: Daudi lymphoma cells. Set-up: unit not given here. Format: functional, cell-based.
The species named for assay [2] is Mus musculus. Description: Cytotoxicity was evaluated on mice spleen lymphocytes stimulated by Phaseolus Vulgaris Phytohemagglutininin (PHA) after 72 hours. Set-up: unit not given here. Format: functional.
Assay [3] is filed under the species Mus musculus. As to the kind of experiment: Cytotoxicity was evaluated on mice spleen lymphocytes stimulated by Phaseolus Vulgaris Phytohemagglutininin (PHA) after 48 hours. Format: functional. The arrangement: unit not given here.
The species entered for assay [4] is Mus musculus. Description: Cytotoxicity of compound was evaluated on mice spleen lymphocytes stimulated by Phaseolus Vulgaris Phytohemagglutininin (PHA) after 48 hours. Format: functional.

SMILES strings stand for the structures.

With `CCOC(=O)/C=C/[C@H]1OCC/C(=C\COCc2ccccc2)[C@@H]1O[Si](C)(C)C(C)(C)C`, the IC50 in assay [1] is reported as 0.6; in assay [2], 1.4; in assay [3], 0.7.

`COC(=O)CC(O)[C@H]1OCC/C(=C\COCc2ccccc2)C1O[Si](C)(C)C(C)(C)C` (stereo not given in full): the IC50 came out at 10 in assay [1], 20 in assay [2] and 20 in assay [3].

For the compound `CCOC(=O)/C=C/[C@H]1OCC/C(=C\C(=O)OCC)[C@@H]1O[Si](C)(C)C(C)(C)C`, the IC50 in assay [1] is recorded as 9.3; in assay [4] it was 8.8 M ml-1; in assay [2], 17.6.

As for `O=C1CC(O)[C@H]2OCC/C(=C\COCc3ccccc3)C2O1` (stereo not given in full), the IC50 in assay [1] was found to be 3.5; in assay [2], 13; in assay [3], 8.8.

For `CCOC(=O)/C=C/C=C/[C@H]1OCC/C(=C\C(=O)OCC)[C@@H]1O[Si](C)(C)C(C)(C)C`, the IC50 was 2.2 in assay [1], 1.1 in assay [2] and 0.73 in assay [3].
